The target of series [1] is T1, B. cereus PC-PLC (phosphatidylcholine-specific phospholipase C) (Bacillus cereus, UniProt P09598).
T1 construct: purchased Invitrogen
Description: Inhibition of phosphatidylcholine-specific phospholipase C (Amplex Red PC-PLC assay kit). The format is biochemical. The conditions noted are these: 30 min at 37° C., 0.2 U/mL PC-PLC solution, triplicate. As for the experimental part:
(§1) The inhibitory activities of optically active potassium salts of (+)- and (−)-O-exo/C-exo-tricyclo [5.2.1.0^2,6]-dec-9-yl-xanthic acid 1A ((+)- and (−)-enantiomers 1A) against phosphatidylcholine-specific phospholipase C were evaluated, together with D609 and potassium salt of racemic O-exo/C-exo xanthic acid 1A (racemic 1A), using Amplex Red phosphatidylcholine-specific phospholipase C(PC-PLC) assay kit, which was obtained from Invitrogen (Calsbad, Calif.). D609 was obtained from Sigma Aldrich.
(§2) An Amplex Red stock solution (˜20 mM), a working reaction buffer, and a horseradish peroxidase stock solution (200 U/mL), a H2O2 working solution (20 mM), a choline oxidate stock solution (20 U/mL), an alkaline phosphatase stock solution (400 U/mL), and a B. cereus PC-PLC stock solution (10 U/mL) were prepared according to the instruction of the assay kit. The stock solution (100 mg/mL) for each test compound was also prepared by dissolving the compound in water 2 hr prior to the start of the experiment.
(§3) A working Amplex Red/HRP/lecithin solution was prepared by adding 200 μL of Amplex Red reagent stock solution, 100 μL of HRP stock solution, 200 μL of alkaline phosphatase stock solution, 100 μL of choline oxidase stock solution, and 78 μL of the lecithin solution to […] of the working reaction buffer. PC-PLC solution (0.2 U/mL) was prepared by diluting the PC-PLC stock solution with the working reaction buffer to the desired concentration.
The test compound (25 μL) at a serious of concentrations was pipetted into a 96 well plate. For uninhibited PC-PLC controls and non-PC-PLC controls, 25 μL of water was added. After the addition of 50 μL of the Amplex Red/HRP/lecithin working solution, the reaction was initiated by adding 25 μL of PC-PLC solution to each well. […] After incubated for 30 min at 37° C., the reactions were measured with a fluorescence microplate reader using excitation at 550 nm and emission detection at 590 nm. The fluorescent data obtained were corrected for background fluorescence by subtracting the values obtained from the non-PC-PLC controls.

Series [2] deals with Herpes simplex virus type-2 (HSV-2). Briefly: Inhibition of HSV-2 (plaque assay; Calu-6 infected, RITA cells for plaques). The series is classed as cell-based. As for the experimental part:
(§4) Calu-6 cells and RITA cells were grown in DMEM cell culture medium containing 10% fetal calf serum in CO2 incubator under 5% CO2 at 37° C. with 100% humidity.
(§5) For HSV-2 inhibition, Calu-6 cells were seeded in 96 well plates at a density of 3×10^6 cells per plate in the DMEM cell culture medium. The plates were incubated at 37° C. in the presence of 5% CO2 for 24 hr. The DMEM cell culture medium in the plates was removed and the cells were infected with Herpes simplex virus type-2 at 50 plaque forming units per well. After incubation at 37° C. for 60 min, test compounds in DMEM cell culture medium at a series of concentrations were added. The plates were incubated at 37° C. in the presence of 5% CO2 for 48 hr. The plates were frozen at −20° C. prior to further analysis. After thawing at room temperature, supernatants containing infectious virus particles were prepared by centrifuging the supernatant from each well at 18,000 g at 4° C. for 5 min. The supernatant was further diluted before assay.
RITA cells were seeded in 24 well Linbra plates at a density of 4×10^6 cells per plate in 2 mL of DMEM cell culture medium. The plates were incubated at 37° C. in the presence of 5% CO2 for 24 hr. After the removal of the cell culture medium, 0.1 mL of the diluted supernatants was added and the plates were incubated at 37 C for 1 hr. DMEM cell medium containing 10% fetal calf serum and 0.5% methyl cellulose was added and the plates were incubated at 37 for 48 hr. The plates were then washed with PBS, fixed with 3% formaldehyde solution containing 0.9% NaCl for 1 min, washed by water for 10 sec, and dried overnight. For detection, the plates were then stained with crystal violet solution for 5 min at room temperature, washed 5 times with water, and dried at room temperature overnight. The number of plaques was determined macroscopically. The number of plaques per well was then multiplied with the dilution factor. Dose response curves were obtained by plotting the number of plaques/0.1 mL against compound concentration. The therapeutic index was also calculated for each compound by dividing LD50 with IC50.

For series [3], the system named is bovine papilloma virus type I (BPV-1)-transformed HEF (HEF-BPV). Description: Inhibition of bovine papilloma virus, BPV-infected hamster embryo fibroblasts (HEF) cell proliferation assay. The format is cell-based. The settings on record: Bos taurus papillomavirus 1, HEF, 72 h, pH 6.8, HEF-BPV, 37° C., read-out: IC50. As for the experimental part: Briefly, hamster embryo fibroblasts and bovine papilloma virus type I (BPV-1)-transformed HEF (HEF-BPV) were grown in Eagle's basal medium. […] and HEF cells were seeded in 96-well plates at a density of 0.5×10^6 cells per plate in DMEM cell culture medium containing 10% fetal calf serum at pH 6.8. The plates were then incubated in the presence of 5% CO2 in 100% humidity at 37° C. After 6 hr, the cell culture medium in the plates was exchanged with fresh DMEM cell culture medium containing test compounds at a series of concentrations. The plates were incubated at 37° C. for additional 72 hr. Cells in the plates were then washed with PBS, fixed with 3% formaldehyde solution containing 0.9% NaCl for 1 min, washed by water for 10 sec, and dried overnight. For detection, the plates were stained with crystal violet solution for 5 min at room temperature, washed 5 times with water, and dried at room temperature overnight. After adding ethanol/acetic acid (99:1, v/v, […]) to each well, the plates were measured at 595 nm using an ELISA reader.

Series [4] deals with phosphatidylcholine-specific phospholipase C (PC-PLC). The conditions noted are these: Gonzalez-Roura et al.; comparison between diastereomers; cited from earlier work.
For series [5], the system named is herpes simplex virus type 2. Briefly: HSV-2 inhibition in Calu-6 cells, plaque titration on RITA cells. The format is cell-based. The conditions noted are these: Human alphaherpesvirus 2, Calu-6; 48 hr, 50 plaque forming units per well. As for the experimental part:
as §4, §5
RITA cells were seeded in 24 well Linbra plates at a density of 4×10^6 cells per plate in 2 mL of DMEM cell culture medium. The plates were incubated at 37° C. in the presence of 5% CO2 for 24 hr. […] The number of plaques was determined macroscopically. […] The therapeutic index was also calculated for each compound by dividing LD50 with IC50.

In the next series the test system is Calu-6 cells. Briefly: Cytotoxicity assay in Calu-6 cells (crystal violet). The series is classed as cell-based. The settings on record: 48 hr. As for the experimental part:
as §4
For cytotoxicity assay, Calu-6 cells were seeded in 96 well plates at a density of 3×10^6 cells per plate in the DMEM cell culture medium. The plates were incubated at 37° C. in the presence of 5% CO2 for 24 hr. The DMEM cell culture medium in the plates was exchanged with fresh DMEM cell culture medium containing test compounds at a series of concentrations. The plates were incubated at 37° C. in the presence of 5% CO2 for 48 hr. The plates were then washed with PBS, fixed with 3% formaldehyde solution containing 0.9% NaCl for 1 min, washed by water for 10 sec, and dried overnight. For detection, the plates were stained with crystal violet solution for 5 min at room temperature, washed 5 times with water, and dried at room temperature overnight. After adding ethanol/acetic acid (99:1, v/v, […]) to each well, the plates were measured at 595 nm using an ELISA reader. A dose response curve was obtained for each compound tested by plotting the mean values of the optical densities against compound concentration.

For series [6], the target named is T2, phosphatidylcholine-specific phospholipase C (PC-PLC) (Bacillus cereus, UniProt P09598).
T2 construct: purchased Invitrogen
Description: Amplex Red phosphatidylcholine-specific phospholipase C (PC-PLC) inhibition assay. The format is biochemical, B. cereus. The settings on record: 30 min at 37° C., triplicate. The protocol:
as §1, §2, §3
The test compound (25 μL) at a serious of concentrations was pipetted into a 96 well plate. For uninhibited PC-PLC controls and non-PC-PLC controls, 25 μL of water was added. After the addition of 50 μL of the Amplex Red/HRP/lecithin working solution, the reaction was initiated by adding 25 μL of PC-PLC solution to each well. To the non-PC-PLC controls, 25 μL of water was added instead of PC-PLC solution. The experiment was performed in triplicate. The reactions were protected from light. After incubated for 30 min at 37° C., the reactions were measured with a fluorescence microplate reader using excitation at 550 nm and emission detection at 590 nm. The fluorescent data obtained were corrected for background fluorescence by subtracting the values obtained from the non-PC-PLC controls.

Results on 5 molecules are retold here after US20100240746A1, “STEREOISOMERS OF TRICYCLODECAN-9-YL-XANTHOGENATE” (LUMAVITA AG, priority 2007, published 2010).

≈ marks a conversion by molar mass, not a printed value.

T1 sequence (P09598 39-283 limits assumed): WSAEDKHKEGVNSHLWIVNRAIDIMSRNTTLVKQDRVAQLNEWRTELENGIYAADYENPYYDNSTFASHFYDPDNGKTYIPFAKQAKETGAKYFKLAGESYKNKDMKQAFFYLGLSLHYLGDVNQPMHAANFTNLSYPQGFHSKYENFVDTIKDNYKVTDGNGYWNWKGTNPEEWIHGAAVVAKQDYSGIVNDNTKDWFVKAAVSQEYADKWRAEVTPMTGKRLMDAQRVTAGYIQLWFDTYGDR
T2 sequence (P09598 39-283 limits assumed): as above

In the case of `S=C(S)OC1CC2CC1C1CCCC21` (single isomer, unassigned; (+)) [(+)-Enantiomer 1A, (+)-O-exo/C-exo-tricyclo[5.2.1.0^2,6]-dec-9-yl-xanthic acid], the IC50 (usually the concentration that inhibits the measured activity by half) in series [1] was 60.8 µM; in series [2] (Calu-6 cells, 48 hr, 50 plaque forming units per well), 20.97 ± 4.06 µg/mL (≈ 91.8 µM); in series [3], 19.9 ± 2.52 µg/mL (≈ 87.1 µM). Besides, in series [2] (LD50 (Calu-6) divided by IC50 (HSV-2), 2880 min), the “Therapeutic Index” value came to 3.9.

Turning to `S=C(S)OC1CC2CC1C1CCCC21` (stereo not drawn) [O-exo/C-endo 1B], the “inhibitory activities against PC-specific phospholipase C” value in series [4] is listed as “no significant differences”.

Take `Nc1nc2c(ncn2COCCO)c(=O)[nH]1` [Aciclovir, aciclovir]: the IC50 in series [5] was 1.21 ± 0.81 µg/mL (≈ 5.37 µM).

Take `S=C(S)OC1CC2CC1C1CCCC21` (racemic) [Racemic 1A, racemic O-exo/C-exo-tricyclo[5.2.1.0^2,6]-dec-9-yl-xanthic acid]: the “inhibitory activities against PC-specific phospholipase C” value in series [4] is “no significant differences”.

Take `S=C(S)OC1CC2CC1C1CCCC21` (single isomer, unassigned; enantiomer 1a) [(+)-Enantiomer 1A, (+)-O-exo/C-exo-tricyclo[5.2.1.0^2,6]-dec-9-yl-xanthic acid 1A]: the LD50 with Calu-6 cells came to 81.29 ± 4.53 µg/mL. In series [6], this molecule gave an IC50 of 13.88 ± 0.85 µg/mL (≈ 60.8 µM).
